# Experimental data: US5789416A, “N^6 mono heterocyclic substituted adenosine derivatives” (CV Therapeutics, priority 1996, dated 1998)
# Like-named read-outs stand apart in the source and are kept apart here.
# What was measured:
# Format in all cases: cell-based
# adenosine A1 receptor [1] = biological target: T1, adenosine A1 receptor (Mesocricetus auratus, UniProt A0A1U8BVR4); test: A1 receptor mediated inhibition of isoproterenol stimulated cAMP accumulation in DDT cells; details: DDT cells; inhibition of isoproterenol stimulated cAMP accumulation (A1 agonism)
# T1 construct: endogenous in cells
# T1 sequence (A0A1U8BVR4 1-326): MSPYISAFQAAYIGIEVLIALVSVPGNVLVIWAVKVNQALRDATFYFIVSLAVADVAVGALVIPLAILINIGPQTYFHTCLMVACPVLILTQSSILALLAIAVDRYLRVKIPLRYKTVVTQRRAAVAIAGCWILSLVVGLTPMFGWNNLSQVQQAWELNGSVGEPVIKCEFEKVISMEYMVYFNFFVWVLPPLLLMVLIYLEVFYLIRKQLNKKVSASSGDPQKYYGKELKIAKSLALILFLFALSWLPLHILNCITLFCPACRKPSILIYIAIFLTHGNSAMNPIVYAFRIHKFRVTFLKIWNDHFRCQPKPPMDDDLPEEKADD
# Excerpt: (§1) The first was the A1 receptor mediated inhibition of isoproterenol stimulated cAMP accumulation in DDT cells. The EC50 of each derivative is shown in Table I. Also shown in Table I is the ability of each derivative to stimulate cAMP production in PC12 cells, a function of agonist stimulation of adenosine A2 receptors. The ratio of the relative potency of each compound in stimulating either an A1 receptor or an A2 receptor effect is termed the selectivity of each compound for the A1 receptor.
# adenosine A1 receptor [2] = test: as above; details: for A1 /A2: ratio of EC50 in DDT cells (A1) to EC50 in PC12 cells (A2)
# Excerpt: as §1
# adenosine A2 receptors = biological target: T2, adenosine A2 receptors (Rattus norvegicus, UniProt P30543); test: stimulation of cAMP production in PC12 cells (adenosine A2 receptor agonist function); details: stimulation of cAMP production (A2 agonism)
# T2 construct: stimulate cAMP production in PC12 cells, a function of agonist stimulation of adenosine A2 receptors; endogenous in cells; host or cells: PC12 cells
# Description: Compounds of this invention prepared according to the method of Example 1 were tested in two functional models specific for adenosine A1 receptor agonist function. The first was the A1 receptor mediated inhibition of isoproterenol stimulated cAMP accumulation in DDT cells. The EC50 of each derivative is shown in Table I. Also shown in Table I is the ability of each derivative to stimulate cAMP production in PC12 cells, a function of agonist stimulation of adenosine A2 receptors. The ratio of the relative potency of each compound in stimulating either an A1 receptor or an A2 receptor effect is termed the selectivity of each compound for the A1 receptor. […] The use of measuring cAMP metabolism as an assay for adenosine A1 receptor function has been previously described (Scammells, P., Baker, S., Belardinelli, L., and Olsson, R., 1994, Substituted 1,3-dipropylxanthines as irreversible antagonists of A1 adenosine receptors. J. Med. Chem 37: […], 1994).
# [3] = ratio of EC50 in PC12 cells (A2) to EC50 in DDT cells (A1), A1 selectivity
# T2 sequence (P30543 whole entry): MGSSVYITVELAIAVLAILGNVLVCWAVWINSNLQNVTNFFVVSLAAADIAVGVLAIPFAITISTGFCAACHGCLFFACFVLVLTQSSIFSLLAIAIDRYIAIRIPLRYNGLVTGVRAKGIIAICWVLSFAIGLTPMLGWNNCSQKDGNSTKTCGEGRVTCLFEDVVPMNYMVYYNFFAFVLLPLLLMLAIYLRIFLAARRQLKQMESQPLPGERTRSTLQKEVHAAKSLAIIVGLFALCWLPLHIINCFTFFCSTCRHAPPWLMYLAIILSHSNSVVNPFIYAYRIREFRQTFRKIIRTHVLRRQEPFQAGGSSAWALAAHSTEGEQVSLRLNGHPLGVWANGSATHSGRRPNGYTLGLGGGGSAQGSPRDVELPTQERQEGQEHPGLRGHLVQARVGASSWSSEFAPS
Structure (SMILES),EC50 (adenosine A1 receptor [1]) [nM],A1 /A2 (adenosine A1 receptor [2]),A2 /A1 (adenosine A1 receptor [2]; [3]),EC50 (adenosine A2 receptors) [nM],A2 /A1 (adenosine A1 receptor [2])
O=C1NCCCC[C@@H]1Nc1ncnc2c1ncn2[C@@H]1O[C@H](CO)[C@@H](O)[C@H]1O [IV],161,0.889,1.12,181,–
"OC[C@H]1O[C@@H](n2cnc3c(NC4CCOC4)ncnc32)[C@H](O)[C@@H]1O (some centres unmarked) [II, 6-(3-aminotetrahydrofuranyl)purine Riboside]",13,0.0093,107.6,1400,–
"OC[C@H]1O[C@@H](n2cnc3c(N[C@H]4CCOC4)ncnc32)[C@H](O)[C@@H]1O [V, 6-(3-(S)-aminotetrahydrofuranyl)purine Riboside]",3.4,0.00044,2258,7680,–
"OC[C@H]1O[C@@H](n2cnc3c(NC4CCOCC4)ncnc32)[C@H](O)[C@@H]1O [I, 6-(4-aminopyran)-purine Riboside]",12,0.012,–,970,80.0
OC[C@H]1O[C@@H](n2cnc3c(N[C@@H]4CCOC4)ncnc32)[C@H](O)[C@@H]1O [III],1.08,0.0024,414,448,–
